Measured values from US3997506A (priority 1974, dated 1976).
Several values for one entry are separate records, joined by “and”; a condition that tells them apart may be missing. Equal values may be shown once. Read-outs that look alike come from different tables or passages of the source.

What was measured:
in vitro [1] = settings: human, leucocytes, % of dead cells (Average of 2 determinations), no PHA
leucocytes from rats = settings: 6 hours after administration, 2 mg/kg oral
in vitro [2] = format: cell-based, human; settings: human, leucocytes, read-out: % of dead cells
Experimental: (§1) The cytotoxicity has been investigated on human leucocytes by means of the viability test with Trypan blue.
(§2) a. In a first experimentation cultures of leucocytes of a voluntary […] were prepared and caused to undergo incubation with phytohemagglutinin (PHA) and with different concentrations of colchicine or of its derivative (C1 = 2.5 μg/ml of culture, C3 = 10 μg/ml, C5 = 30 μg/ml, C6 = 50 μg/ml). Leucocytes only containing PHA served as controls.
(§3) After 3, 42, 68 and 72 hours of incubation a sample of each culture was contacted by a drop of Trypan blue and laid on a slide of a microscope. Then took place the counting of the dead cells (those with assumed an […] colour) and of all the cells present on the slide in order to obtain the ratio of the number of dead cells to the total number of cells. The results expressed as a rate in per cent are shown in the accompanying table 8.
(§4) b. After the experimentation which has just been described, the study of cytotoxicity has been continued with two other samples of human leucocytes still by means of the viability test with Trypan blue.
(§5) C1 = 2.5 μg/ml of culture
(§6) C6 = 50 μg/ml of culture;
(§7) and for the carboxy-1-adamantane fraction to:
(§8) C3 = 4.5 μg/ml of culture
(§9) C6 = 22.5 μg/ml of culture.
(§10) Leucocytes only containing phytohemagglutinin and others containing phytohemagglutinin and 50 μl of methanol served as controls.
(§11) The percentage of dead cells was determined after different numbers of hours of incubation.

human leucocytes = assay: in vitro; format: cell-based; settings: for % of dead cells: first experimentation, C6 = 50 μg/ml
Experimental: as §1, §2, §3, §4, §5, §6, §7, §8, §9, §10, §11

[3] = first experimentation, C1 = 2.5 μg/ml
[4] = first experimentation, C3 = 10 μg/ml
[5] = first experimentation, C5 = 30 μg/ml

Compound: COc1cc2c(c(OC)c1OC)-c1ccc(SC)c(=O)cc1C(NC(=O)C13CC4CC(CC(C4)C1)C3)CC2 (single isomer, unassigned) [Derivative, N-desacetyl-N-adamantoyl-thiocolchicine]
- cytotoxicity at 6 h (in vitro [1]; C1 = 0.01 μg/ml): 1%
- cytotoxicity at 6 h (in vitro [1]; C2 = 0.1 μg/ml): 1%
- cytotoxicity at 6 h (in vitro [1]; C3 = 0.5 μg/ml): 0%
- cytotoxicity at 6 h (in vitro [1]; C4 = 1.0 μg/ml): 1%
- cytotoxicity at 6 h (in vitro [1]; C5 = 2.5 μg/ml): 1%
- cytotoxicity at 6 h (in vitro [1]; C6 = 10.0 μg/ml): 1%
- cytotoxicity at 30 h (in vitro [1]; C1 = 0.01 μg/ml): 64%
- cytotoxicity at 30 h (in vitro [1]; C2 = 0.1 μg/ml): 54%
- cytotoxicity at 30 h (in vitro [1]; C3 = 0.5 μg/ml): 50%
- cytotoxicity at 30 h (in vitro [1]; C4 = 1.0 μg/ml): 49%
- cytotoxicity at 30 h (in vitro [1]; C5 = 2.5 μg/ml): 45%
- cytotoxicity at 30 h (in vitro [1]; C6 = 10.0 μg/ml): 67%
- cytotoxicity at 48 h (in vitro [1]; C1 = 0.01 μg/ml): 93%
- cytotoxicity at 48 h (in vitro [1]; C2 = 0.1 μg/ml): 95%
- cytotoxicity at 48 h (in vitro [1]; C3 = 0.5 μg/ml): 91%
- cytotoxicity at 48 h (in vitro [1]; C4 = 1.0 μg/ml): 94%
- cytotoxicity at 48 h (in vitro [1]; C5 = 2.5 μg/ml): 88%
- cytotoxicity at 48 h (in vitro [1]; C6 = 10.0 μg/ml): 91%
- cytotoxic effect (in words) (leucocytes from rats): no cytotoxic effect has been noticed
- % of dead cells (leucocytes from rats; individual rat, 2 mg/kg, 360 min): 2% and 1% and 0%
- cytotoxicity at 4 h (in vitro [2]; Culture I, C3 = 10 μg/ml): 15%
- cytotoxicity at 4 h (in vitro [2]; Culture I, C6 = 50 μg/ml): 17%
- cytotoxicity at 22 h (in vitro [2]; Culture I, C3 = 10 μg/ml): 12%
- cytotoxicity at 22 h (in vitro [2]; Culture I, C6 = 50 μg/ml): 22%
- cytotoxicity at 46 h (in vitro [2]; Culture I, C3 = 10 μg/ml): 42%
- cytotoxicity at 46 h (in vitro [2]; Culture I, C6 = 50 μg/ml): 53%
- cytotoxicity at 76 h (in vitro [2]; Culture I, C3 = 10 μg/ml): 40%
- cytotoxicity at 76 h (in vitro [2]; Culture I, C6 = 50 μg/ml): 62%
- cytotoxicity at 23 h (in vitro [2]; Culture II, C1 = 2.5 μg/ml): 8%
- cytotoxicity at 23 h (in vitro [2]; Culture II, C3 = 10 μg/ml): 11%
- cytotoxicity at 23 h (in vitro [2]; Culture II, C5 = 30 μg/ml): 16%
- cytotoxicity at 46 h (in vitro [2]; Culture II, C1 = 2.5 μg/ml): 4%
- cytotoxicity at 46 h (in vitro [2]; Culture II, C3 = 10 μg/ml): 13%
- cytotoxicity at 46 h (in vitro [2]; Culture II, C5 = 30 μg/ml): 22%
- cytotoxicity at 72 h (in vitro [2]; Culture II, C1 = 2.5 μg/ml): 26%
- cytotoxicity at 72 h (in vitro [2]; Culture II, C3 = 10 μg/ml): 41%
- cytotoxicity at 72 h (in vitro [2]; Culture II, C5 = 30 μg/ml): 43%
- cytotoxicity at 72 h (in vitro [2]; Culture II, C6 = 50 μg/ml, *x/x = 2 different tubes): 61%
- cytotoxicity at 3 h (in vitro [2]; [3]): 0%
- cytotoxicity at 3 h (in vitro [2]; [4]): 0%
- cytotoxicity at 3 h (in vitro [2]; [5]): 0%
- cytotoxicity at 42 h (in vitro [2]; [3]): 5%
- cytotoxicity at 42 h (in vitro [2]; [4]): 7%
- cytotoxicity at 42 h (in vitro [2]; [5]): 23%
- cytotoxicity at 42 h (in vitro [2]; first experimentation, C6 = 50 μg/ml): 32%
- cytotoxicity at 68 h (in vitro [2]; [3]): 5%
- cytotoxicity at 68 h (in vitro [2]; [4]): 9%
- cytotoxicity at 68 h (in vitro [2]; [5]): 20%
- cytotoxicity at 72 h (in vitro [2]; [3]): 9%
- cytotoxicity at 72 h (in vitro [2]; [4]): 12%
- cytotoxicity at 72 h (in vitro [2]; [5]): 35%
- cytotoxicity, cultures I and II (in words) (human leucocytes; Cultures I and II): does not seem to be very different from that of colchicine or methanol after 23 hours of incubation; however for longer periods of time and more especially with concentrations C5 and C6 it becomes more substantial
- % of dead cells (human leucocytes; 68 hours): very few
- % of dead cells (human leucocytes; 72 hours): very few
